In publication PMC9820167, “Design and Synthesis of Conformationally Flexible Scaffold as Bitopic Ligands for Potent D3-Selective Antagonists” (International Journal of Molecular Sciences, 2022):

Columns and labels:
Serotonin 5-HT7A = Serotonin 5-HT7A (Homo sapiens, UniProt P34969); assay: PDSP binding screen; conditions: for inhibition at 10 µM: read-out: Ki (nM) or % inhibition at 10 µM: 5-HT7A
human D3 receptors = human D3 receptors (Homo sapiens, UniProt P35462); assay: Radioligand binding assay with [125I]IABN, D3 receptor; design: expressed in transfected cells; host or cells: HEK293; conditions: for Ki: [125I]IABN, D3 receptors expressed in HEK cells, mean ± SEM, three experiments, HCl salts, read-out: Ki ± SEM (nM) D3; for D2/D3: selectivity ratio of Ki D2 / Ki D3 (fold)
Chain of human D3 receptors (P35462 whole entry): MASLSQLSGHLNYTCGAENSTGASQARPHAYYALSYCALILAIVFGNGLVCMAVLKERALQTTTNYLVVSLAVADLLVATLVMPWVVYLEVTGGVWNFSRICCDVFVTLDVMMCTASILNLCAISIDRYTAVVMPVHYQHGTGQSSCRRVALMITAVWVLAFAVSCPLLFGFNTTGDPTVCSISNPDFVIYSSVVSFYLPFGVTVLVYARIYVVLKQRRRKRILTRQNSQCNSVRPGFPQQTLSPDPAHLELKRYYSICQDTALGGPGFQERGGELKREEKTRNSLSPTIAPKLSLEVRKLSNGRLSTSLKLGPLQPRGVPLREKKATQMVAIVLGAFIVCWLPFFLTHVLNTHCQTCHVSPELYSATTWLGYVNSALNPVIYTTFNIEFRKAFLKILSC
Description: Two different assays were used to evaluate the properties of the analogs described above. The receptor binding affinity was measured by radioligand binding assays using [^125I]IABN with D2 or D3 receptors highly expressed HEK293 cells. The functional activity of the analogs was determined using a β-arrestin recruitment assay. The assay was initially conducted in agonist binding mode to confirm that they function as antagonists at the D3 receptor. Once this efficacy was confirmed, the assay was conducted in antagonist mode to determine the ability of the antagonist to compete with dopamine at the D3 receptor. The results of the antagonist mode assay are reported as IC50 values.
Ki values for D2 and D3 receptors were measured using [^125I]IABN in human D2 and D3 receptors expressed in HEK cells, respectively. A filtration binding assay was used to characterize membrane-associated receptor binding properties. The details for the procedures were described in the literature.

GABAA = assay: PDSP binding screen; conditions: HCl salts
Muscarinic M2 = target: T1, Muscarinic M2 (Homo sapiens, UniProt P08172); assay: PDSP binding screen; conditions: for inhibition at 10 µM: read-out: Ki (nM) or % inhibition at 10 µM: M2
T1 sequence (P08172 1-466): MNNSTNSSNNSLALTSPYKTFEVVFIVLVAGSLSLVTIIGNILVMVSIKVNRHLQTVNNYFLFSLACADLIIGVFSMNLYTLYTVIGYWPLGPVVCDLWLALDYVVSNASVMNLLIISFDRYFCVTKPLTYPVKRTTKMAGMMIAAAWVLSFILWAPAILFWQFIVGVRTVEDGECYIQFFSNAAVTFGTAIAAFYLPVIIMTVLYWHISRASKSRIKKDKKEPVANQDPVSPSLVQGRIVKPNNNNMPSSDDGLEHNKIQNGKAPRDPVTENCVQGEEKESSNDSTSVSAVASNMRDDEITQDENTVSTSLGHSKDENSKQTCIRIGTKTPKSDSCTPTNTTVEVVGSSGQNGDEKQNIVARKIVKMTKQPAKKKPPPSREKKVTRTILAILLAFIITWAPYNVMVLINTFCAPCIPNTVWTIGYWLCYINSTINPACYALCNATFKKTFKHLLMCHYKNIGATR

BZP Rat Brain Site = assay: PDSP binding screen; conditions: HCl salts
Opioid MOR = Opioid MOR (Homo sapiens, UniProt P35372); assay: PDSP binding screen
Chain of Opioid MOR (P35372 whole entry): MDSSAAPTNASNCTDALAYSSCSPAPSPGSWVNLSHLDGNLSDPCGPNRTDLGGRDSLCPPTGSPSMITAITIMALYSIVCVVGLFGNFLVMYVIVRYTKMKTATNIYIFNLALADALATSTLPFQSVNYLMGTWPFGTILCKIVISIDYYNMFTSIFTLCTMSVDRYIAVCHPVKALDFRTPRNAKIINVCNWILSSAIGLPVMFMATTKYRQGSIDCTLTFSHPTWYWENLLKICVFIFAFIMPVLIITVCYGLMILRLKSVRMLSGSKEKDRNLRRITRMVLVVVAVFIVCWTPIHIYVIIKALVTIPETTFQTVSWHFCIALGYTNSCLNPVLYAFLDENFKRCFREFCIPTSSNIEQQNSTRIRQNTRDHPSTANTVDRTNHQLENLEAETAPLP

Dopamine D3 = Dopamine D3 (Homo sapiens, UniProt P35462); assay: PDSP binding screen
Chain of Dopamine D3 (P35462 whole entry): as the sequence (P35462 whole entry) above

Dopamine D4 = target: T2, Dopamine D4 (Homo sapiens, UniProt P21917); assay: PDSP binding screen
T2 sequence (P21917 1-419): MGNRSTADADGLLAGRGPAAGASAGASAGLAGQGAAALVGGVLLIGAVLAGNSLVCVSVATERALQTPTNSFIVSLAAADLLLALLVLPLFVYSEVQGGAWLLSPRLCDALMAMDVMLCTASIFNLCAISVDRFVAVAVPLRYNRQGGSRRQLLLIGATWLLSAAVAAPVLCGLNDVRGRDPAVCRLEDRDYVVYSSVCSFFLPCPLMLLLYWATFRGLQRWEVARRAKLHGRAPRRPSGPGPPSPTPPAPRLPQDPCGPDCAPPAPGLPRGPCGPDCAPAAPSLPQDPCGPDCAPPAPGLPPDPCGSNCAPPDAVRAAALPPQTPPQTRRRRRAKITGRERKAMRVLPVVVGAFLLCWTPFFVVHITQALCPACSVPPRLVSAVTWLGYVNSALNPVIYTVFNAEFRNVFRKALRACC

Serotonin 5-HT6 = Serotonin 5-HT6 (Homo sapiens, UniProt P50406); assay: PDSP binding screen
Chain of Serotonin 5-HT6 (P50406 whole entry): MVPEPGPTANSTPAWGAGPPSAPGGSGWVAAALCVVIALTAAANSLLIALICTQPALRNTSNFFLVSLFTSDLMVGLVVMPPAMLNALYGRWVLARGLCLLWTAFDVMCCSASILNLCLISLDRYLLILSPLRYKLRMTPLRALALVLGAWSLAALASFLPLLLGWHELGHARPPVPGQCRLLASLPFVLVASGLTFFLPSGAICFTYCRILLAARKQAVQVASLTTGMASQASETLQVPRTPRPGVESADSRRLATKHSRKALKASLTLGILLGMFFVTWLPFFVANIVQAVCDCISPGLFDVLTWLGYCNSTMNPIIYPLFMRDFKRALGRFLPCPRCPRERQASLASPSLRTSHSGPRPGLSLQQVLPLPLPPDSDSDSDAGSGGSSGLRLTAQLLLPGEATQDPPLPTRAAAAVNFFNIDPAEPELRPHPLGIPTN

Serotonin 5-HT2B = Serotonin 5-HT2B (Homo sapiens, UniProt P41595); assay: PDSP binding screen
Chain of Serotonin 5-HT2B (P41595 whole entry): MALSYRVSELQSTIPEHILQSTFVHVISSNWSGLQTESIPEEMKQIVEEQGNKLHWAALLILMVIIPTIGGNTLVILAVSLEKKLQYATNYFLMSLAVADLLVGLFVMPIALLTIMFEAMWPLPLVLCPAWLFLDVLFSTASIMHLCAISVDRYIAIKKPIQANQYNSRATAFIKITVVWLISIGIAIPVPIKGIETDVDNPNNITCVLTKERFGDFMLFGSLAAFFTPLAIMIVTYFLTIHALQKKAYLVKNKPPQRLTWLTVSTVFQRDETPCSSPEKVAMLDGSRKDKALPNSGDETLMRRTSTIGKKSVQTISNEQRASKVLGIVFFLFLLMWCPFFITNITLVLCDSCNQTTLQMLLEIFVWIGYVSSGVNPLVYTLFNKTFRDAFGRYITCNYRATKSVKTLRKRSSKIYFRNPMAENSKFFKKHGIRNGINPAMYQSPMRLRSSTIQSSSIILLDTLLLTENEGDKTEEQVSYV

Adrenergic alpha1D = target: T3, Adrenergic alpha1D (Homo sapiens, UniProt P25100); assay: PDSP binding screen; conditions: for inhibition at 10 µM: read-out: Ki (nM) or % inhibition at 10 µM: alpha1D
T3 sequence (P25100 1-572): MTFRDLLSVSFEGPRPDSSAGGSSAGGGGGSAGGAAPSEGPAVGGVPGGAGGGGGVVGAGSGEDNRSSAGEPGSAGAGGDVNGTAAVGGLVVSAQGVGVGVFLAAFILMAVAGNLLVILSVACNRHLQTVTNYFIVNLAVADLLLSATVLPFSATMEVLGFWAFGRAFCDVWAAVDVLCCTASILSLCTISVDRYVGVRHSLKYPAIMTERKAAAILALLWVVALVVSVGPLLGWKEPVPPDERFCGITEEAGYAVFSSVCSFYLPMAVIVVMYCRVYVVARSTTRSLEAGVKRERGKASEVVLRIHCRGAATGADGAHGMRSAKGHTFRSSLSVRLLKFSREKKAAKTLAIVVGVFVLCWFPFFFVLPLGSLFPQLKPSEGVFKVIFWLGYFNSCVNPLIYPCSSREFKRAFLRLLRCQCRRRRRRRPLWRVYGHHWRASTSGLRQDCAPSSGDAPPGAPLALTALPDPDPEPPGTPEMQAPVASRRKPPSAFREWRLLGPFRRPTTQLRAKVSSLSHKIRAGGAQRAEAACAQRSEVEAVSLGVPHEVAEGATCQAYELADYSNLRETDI

Serotonin 5-HT2C = target: T4, Serotonin 5-HT2C (Homo sapiens, UniProt P28335); assay: PDSP binding screen
T4 sequence (P28335 33-458): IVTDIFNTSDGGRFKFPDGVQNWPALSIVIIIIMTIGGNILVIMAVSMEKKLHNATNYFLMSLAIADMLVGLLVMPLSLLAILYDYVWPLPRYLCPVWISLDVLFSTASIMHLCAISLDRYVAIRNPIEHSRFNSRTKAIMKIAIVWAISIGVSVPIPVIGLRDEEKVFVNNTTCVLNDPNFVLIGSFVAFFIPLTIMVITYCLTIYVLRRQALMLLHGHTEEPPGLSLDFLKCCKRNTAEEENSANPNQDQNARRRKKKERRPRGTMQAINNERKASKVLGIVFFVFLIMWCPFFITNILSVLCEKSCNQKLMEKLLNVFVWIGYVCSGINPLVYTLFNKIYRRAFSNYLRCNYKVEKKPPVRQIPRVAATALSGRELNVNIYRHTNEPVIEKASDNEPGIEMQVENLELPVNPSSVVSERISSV

Chain of Serotonin 5-HT7A (P34969 1-445 isoform P34969-2): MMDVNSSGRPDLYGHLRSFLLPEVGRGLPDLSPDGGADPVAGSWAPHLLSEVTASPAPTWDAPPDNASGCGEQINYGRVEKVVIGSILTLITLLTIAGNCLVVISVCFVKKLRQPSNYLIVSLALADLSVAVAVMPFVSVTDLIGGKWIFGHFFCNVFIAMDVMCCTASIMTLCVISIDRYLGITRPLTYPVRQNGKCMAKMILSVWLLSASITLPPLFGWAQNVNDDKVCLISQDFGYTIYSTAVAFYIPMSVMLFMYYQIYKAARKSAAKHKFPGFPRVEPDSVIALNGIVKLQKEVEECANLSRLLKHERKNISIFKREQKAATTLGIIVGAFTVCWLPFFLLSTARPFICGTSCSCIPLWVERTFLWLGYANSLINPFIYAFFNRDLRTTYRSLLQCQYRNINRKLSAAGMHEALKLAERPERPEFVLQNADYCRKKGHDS

CCN(CCCNC(=O)c1ccc(-c2ccsc2)cc1)CCNC(=O)c1cc(Br)cc(OC)c1OC [21g, 5-Bromo-N-(2-(ethyl(3-(4-(thiophen-3-yl)benzamido)propyl)amino)ethyl)-2,3-dimethoxybenzamide]
Ki (Serotonin 5-HT7A): 2250 nM
Ki (human D3 receptors): 2.5 ± 0.3 nM
D2/D3 (human D3 receptors): 125
Ki (nM) or % inhibition at 10 µM: GABAA (GABAA): N/A (N/A; not active means less than 50% inhibition that was obtained in primary binding assay at 10 µM of the compound)
inhibition at 10 µM (Muscarinic M2): < 50%
Ki (nM) or % inhibition at 10 µM: BZP Rat Brain Site (BZP Rat Brain Site): N/A (N/A; not active means less than 50% inhibition that was obtained in primary binding assay at 10 µM of the compound)
Ki (Opioid MOR): 2160 nM
Ki (Dopamine D3): 0.61 nM
Ki (Dopamine D4): 582 nM
Ki (Serotonin 5-HT6): 363 nM
Ki (Serotonin 5-HT2B): 189 nM
Ki (Adrenergic alpha1D): 1410 nM
Ki (Serotonin 5-HT2C): 354 nM

CCN(CCCNC(=O)c1cn2ccccc2n1)CCNC(=O)c1cc(Br)cc(OC)c1OC [21e, N-(3-((2-(5-Bromo-2,3-dimethoxybenzamido)ethyl)(ethyl)amino)propyl)imidazo[1,2-a]pyridine-2-carboxamide]
inhibition at 10 µM (Serotonin 5-HT7A): < 50%
Ki (human D3 receptors): 2.8 ± 0.5 nM
D2/D3 (human D3 receptors): 50.7
Ki (nM) or % inhibition at 10 µM: GABAA (GABAA): N/A (N/A; not active means less than 50% inhibition that was obtained in primary binding assay at 10 µM of the compound)
Ki (Muscarinic M2): 9440 nM
Ki (nM) or % inhibition at 10 µM: BZP Rat Brain Site (BZP Rat Brain Site): N/A (N/A; not active means less than 50% inhibition that was obtained in primary binding assay at 10 µM of the compound)
inhibition at 10 µM (Opioid MOR; read-out: Ki (nM) or % inhibition at 10 µM: MOR): < 50%
Ki (Dopamine D3): 0.46 nM
inhibition at 10 µM (Dopamine D4; read-out: Ki (nM) or % inhibition at 10 µM: D4): < 50%
Ki (Serotonin 5-HT6): 2330 nM
Ki (Serotonin 5-HT2B): 443 nM
inhibition at 10 µM (Adrenergic alpha1D): < 50%
Ki (Serotonin 5-HT2C): 5780 nM

CCN(CCCNC(=O)c1ccc2ccccc2c1)CCNC(=O)c1cc(Br)cc(OC)c1OC [21a, N-(3-((2-(5-Bromo-2,3-dimethoxybenzamido)ethyl)(ethyl)amino)propyl)-2-naphthamide]
inhibition at 10 µM (Serotonin 5-HT7A): < 50%
Ki (human D3 receptors): 1.2 ± 0.2 nM
D2/D3 (human D3 receptors): 141
Ki (nM) or % inhibition at 10 µM: GABAA (GABAA): N/A (N/A; not active means less than 50% inhibition that was obtained in primary binding assay at 10 µM of the compound)
inhibition at 10 µM (Muscarinic M2): < 50%
Ki (nM) or % inhibition at 10 µM: BZP Rat Brain Site (BZP Rat Brain Site): N/A (N/A; not active means less than 50% inhibition that was obtained in primary binding assay at 10 µM of the compound)
Ki (Opioid MOR): 1080 nM
Ki (Dopamine D3): 0.19 nM
Ki (Dopamine D4): 377 nM
Ki (Serotonin 5-HT6): 730 nM
Ki (Serotonin 5-HT2B): 118 nM
inhibition at 10 µM (Adrenergic alpha1D): < 50%
Ki (Serotonin 5-HT2C): 1330 nM
